In patent US10370371B2, “Substituted pyrimidine Bmi-1 inhibitors” (PTC Therapeutics, Inc., priority 2013, dated 2019):

Test system: Bmi-1 protein
Assay: Sandwich ELISA Assay (Bmi-1 protein level in HT-1080 cells)
Format: cell-based
Description: Cell Seeding and Compound Treatment (Day 1):
HT-1080 cells were seeded at 8000 cells/well (50 μL) in 96-well tissue culture plates. After the cells became adherent (3-4 hours), 2× diluted stocks of test compounds in 50 μL DMEM containing 1% DMSO (final DMSO concentration was 0.5%) were added and the plates were incubated at 37° C. under 5% CO2 for 40-48 hours.
ELISA Plate First Antibody Preparation (Day 2):
The First Antibody (Millipore Mouse, monoclonal to mouse Bmi-1, clone F6, catalog #05-637) diluted to 2 μg/mL in PBS was added (100 μL) to each well of a Nunc MaxiSorp 96-well ELISA plate. The plate was covered with a plate seal and allowed to stand overnight.
Cell Lysate Preparation (Day 3):
Fresh Lysis buffer (1×) was prepared on the day of the assay as follows: 1 mM EDTA, 150 mM NaCl, 0.5% Triton-X 100, 10 mM NaF, 20 mM B-Glycerophosphate, 1 mM DTT (in PBS, pH 7.2-7.4) and HALT protease inhibitor cocktail (1×) (Pierce #78410).
Lysis Buffer (1×, 40 μL) was added to each well and the plate was shaken for 5-10 minutes on an orbital shaker to allow cell lysis, then diluent (1% BSA in PBS in 0.5% NP40) (100 μL) was added to each well.
A standard curve was prepared at the following Bmi-1 concentrations: 8000, 4000, 2000, 1000, 500, 250, 125 and 0 pg/mL. The Bmi-1 Recombinant Protein Standard (Novus Biologicals PCGF4 Recombinant Protein (P01), catalog # H00000648-P01) used to prepare the standard curve was stored at −80° C. On first thaw, the Recombinant Protein Standard was diluted to 10 μg/μL in Blocking Buffer (1% BSA in PBS; BSA: Fisher Scientific Catalog #1600-100). Aliquots were taken and refrozen at −80° C. The aliquots may be kept at 4° C. and reused after first thaw, but only within 1-2 weeks. The Recombinant Protein Standard contains a GST-fusion tag that appears at approximately 70 Kda on Western Blot.
The prepared ELISA plate was washed 3× with Wash Buffer (0.05% Tween-20 in PBS). The final wash was removed from the plate and the plate was blotted dry. Blocking Buffer (300 μL) (1% BSA in PBS) was added to each well. The plate was covered with a plate seal and incubated at room temperature for 1 hour. The blocked plate was washed 3× with Wash Buffer, then the final wash was removed and the plate was blotted dry. The previously prepared samples and standards were added (100 μL/well) and the plate was covered with a plate seal and incubated at 4° C. overnight.
The prepared ELISA plate was removed from incubation and allowed to stand at room temperature for 30 minutes, then washed and blotted dry. The Second Antibody (Cell Signaling Rabbit anti-Bmi-1, Cat#2830) diluted to 1:600 in Blocking Buffer was added (100 μL) to each well, except as needed for background control wells. The plate was covered with a plate seal and incubated for 1.5 hrs at room temperature.
The ELISA plate was washed and blotted dry as previously described. The Third Antibody (Cell Signaling HRP conjugated anti-rabbit IgG (CellSignaling, Cat#:7074) diluted to 1:300 in Blocking Buffer was added (100 μL) to each well, except as needed for background control wells. The plate was incubated for 1 hr at room temperature.
The plate was washed and blotted dry, then a previously prepared TMB substrate (TMB substrate kit, Pierce catalog #34021) (prepared by mixing kit reagents 1:1) (100 μL) was added per well. The plate was incubated for 20-30 minutes at room temperature in the dark, then Stop Solution (2 M sulfuric acid in water) (50 μL) was added per well. The plates were read at OD450 (experimental) and OD570 (reference).

Structure (SMILES) | EC50 [nM]
Cc1nc2c(F)cccc2n1-c1cc(N)nc(Nc2ccc(C(F)(F)F)cc2)n1 [Cpd 35, 6-(4-fluoro-2-methyl-1H-benzimidazol-1-yl)-N^2-[4-(trifluoromethyl)phenyl]pyrimidine-2,4-diamine] | 10 to 100
Cc1nc2ccccc2n1-c1cc(Cl)nc(Nc2ccc(C(F)(F)F)nc2)n1 [Cpd 36, 4-chloro-6-(2-methyl-1H-benzimidazol-1-yl)-N-[6-(trifluoromethyl)pyridin-3-yl]pyrimidin-2-amine] | 100 to 3000
Cc1nc2ccccc2n1-c1cc(N)nc(Nc2ccc(C(F)(F)F)nc2)n1 [Cpd 37, 6-(2-methyl-1H-benzimidazol-1-yl)-N^2-[6-(trifluoromethyl)pyridin-3-yl]pyrimidine-2,4-diamine] | 10 to 100
Cc1nc2ccc(F)cc2n1-c1cc(Cl)nc(Nc2ccc(C(F)(F)F)nc2)n1 [Cpd 38, 4-chloro-6-(6-fluoro-2-methyl-1H-benzimidazol-1-yl)-N-[6-(trifluoromethyl)pyridin-3-yl]pyrimidin-2-amine] | 100 to 3000
Cc1nc2cc(F)ccc2n1-c1cc(N)nc(Nc2ccc(C(F)(F)F)nc2)n1 [Cpd 39, 6-(5-fluoro-2-methyl-1H-benzimidazol-1-yl)-N^2-[6-(trifluoromethyl)pyridin-3-yl]pyrimidine-2,4-diamine] | 10 to 100
Cc1nc2ccc(F)cc2n1-c1cc(N)nc(Nc2ccc(C(F)(F)F)nc2)n1 [Cpd 40, 6-(6-fluoro-2-methyl-1H-benzimidazol-1-yl)-N^2-[6-(trifluoromethyl)pyridin-3-yl]pyrimidine-2,4-diamine] | 10 to 100
Cc1nc2ccc(Br)cc2n1-c1cc(N)nc(Nc2ccc(C(F)(F)F)cc2)n1 [Cpd 41, 6-(6-bromo-2-methyl-1H-benzimidazol-1-yl)-N^2-[4-(trifluoromethyl)phenyl]pyrimidine-2,4-diamine] | 10 to 100
Cc1ccc2nc(C)n(-c3cc(N)nc(Nc4ccc(C(F)(F)F)cc4)n3)c2c1 [Cpd 42, 6-(2,6-dimethyl-1H-benzimidazol-1-yl)-N^2-[4-(trifluoromethyl)phenyl]pyrimidine-2,4-diamine] | 10 to 100
CCc1nc2cc(F)ccc2n1-c1cc(N)nc(Nc2ccc(C(F)(F)F)nc2)n1 [Cpd 43, 6-(2-ethyl-5-fluoro-1-benzimidazol-1-yl)-N^2-[6-(trifluoromethyl)pyridin-3-yl]pyrimidine-2,4-diamine] | 10 to 100
CCc1nc2ccc(F)cc2n1-c1cc(N)nc(Nc2ccc(C(F)(F)F)nc2)n1 [Cpd 44, 6-(2-ethyl-6-fluoro-1H-benzimidazol-1-yl)-N^2-[6-(trifluoromethyl)pyridin-3-yl]pyrimidine-2,4-diamine] | 10 to 100
Cc1nc2ccc(Cl)cc2n1-c1cc(N)nc(Nc2ccc(C(F)(F)F)cc2)n1 [Cpd 45, 6-(6-chloro-2-methyl-1H-benzimidazol-1-yl)-N^2-[4-(trifluoromethyl)phenyl]pyrimidine-2,4-diamine] | 10 to 100
Cc1nc2ccc(Cl)cc2n1-c1cc(O)nc(Nc2ccc(C(F)(F)F)cc2)n1 [Cpd 46, 6-(6-chloro-2-methyl-1H-benzimidazol-1-yl)-2-{[4-(trifluoromethyl)phenyl]amino}pyrimidin-4-ol] | 100 to 3000
Cc1nc2cc(Cl)ccc2n1-c1cc(N)nc(Nc2ccc(C(F)(F)F)cc2)n1 [Cpd 47, 6-(5-chloro-2-methyl-1H-benzimidazol-1-yl)-N^2-[4-(trifluoromethyl)phenyl]pyrimidine-2,4-diamine] | 100 to 3000
Cc1nc2ncc(F)cn2c1-c1cc(N)nc(Nc2ccc(C(F)(F)F)cc2)n1 [Cpd 48, 6-(6-fluoro-2-methylimidazo[1,2-a]pyrimidin-3-yl)-N^2-[4-(trifluoromethyl)phenyl]pyrimidine-2,4-diamine] | 10 to 100
Cc1nc2cc(F)cc(F)c2n1-c1cc(N)nc(Nc2ccc(OC(F)F)cc2)n1 [Cpd 49, N^2-[4-(difluoromethoxy)phenyl]-6-(5,7-difluoro-2-methyl-1H-benzimidazol-1-yl)pyrimidine-2,4-diamine] | 100 to 3000
Nc1cc(-c2c(C(F)(F)F)nc3ccc(F)cn23)nc(Nc2ccc(C(F)(F)F)cc2)n1 [Cpd 50, 6-[6-fluoro-2-(trifluoromethyl)imidazo[1,2-a]pyridin-3-yl]-N^2-[4-(trifluoromethyl)phenyl]pyrimidine-2,4-diamine] | 10 to 100
Cc1nc2c(F)cccc2n1-c1cc(N)nc(Nc2ccc(OC(F)F)cc2)n1 [Cpd 51, N^2-[4-(difluoromethoxy)phenyl]-6-(4-fluoro-2-methyl-1H-benzimidazol-1-yl)pyrimidine-2,4-diamine] | 10 to 100
Cc1cc(Nc2nc(N)cc(-n3c(C)nc4c(F)cccc43)n2)ccc1C(F)(F)F [Cpd 52, 6-(4-fluoro-2-methyl-1H-benzimidazol-1-yl)-N^2-[3-methyl-4-(trifluoromethyl)phenyl]pyrimidine-2,4-diamine] | 100 to 3000
Cc1ccc2nc(C)n(-c3cc(N)nc(Nc4ccc(C(F)(F)F)c(C)c4)n3)c2c1 [Cpd 53, 6-(2,6-dimethyl-1H-benzimidazol-1-yl)-N^2-[3-methyl-4-(trifluoromethyl)phenyl]pyrimidine-2,4-diamine] | 10 to 100
Cc1ccc2nc(C)n(-c3cc(N)nc(Nc4ccc(OC(F)F)cc4)n3)c2c1 [Cpd 54, N^2-[4-(difluoromethoxy)phenyl]-6-(2,6-dimethyl-1H-benzimidazol-1-yl)pyrimidine-2,4-diamine] | 1 to 10
Nc1cc(-c2c(C(F)(F)F)nc3ccc(F)cn23)nc(Nc2ccc(OC(F)F)cc2)n1 [Cpd 55, N^2-[4-(difluoromethoxy)phenyl]-6-[6-fluoro-2-(trifluoromethyl)imidazo[1,2-a]pyridin-3-yl]pyrimidine-2,4-diamine] | 10 to 100
Cc1nc2ccccc2n1-c1nc(Nc2ccc(C(F)(F)F)cc2)nc(N)c1F [Cpd 56, 5-fluoro-6-(2-methyl-1H-benzimidazol-1-yl)-N^2-[4-(trifluoromethyl)phenyl]pyrimidine-2,4-diamine] | 100 to 3000
CCc1nc2ccccc2n1-c1nc(Nc2ccc(C(F)(F)F)cc2)nc(N)c1F [Cpd 57, 6-(2-ethyl-1H-benzimidazol-1-yl)-5-fluoro-N^2-[4-(trifluoromethyl)phenyl]pyrimidine-2,4-diamine] | 10 to 100
Cc1nc2ccc(F)cc2n1-c1nc(Nc2ccc(C(F)(F)F)cc2)nc(N)c1F [Cpd 58, 5-fluoro-6-(6-fluoro-2-methyl-1H-benzimidazol-1-yl)-N^2-[4-(trifluoromethyl)phenyl]pyrimidine-2,4-diamine] | 100 to 3000
CCc1nc2ccc(F)cc2n1-c1nc(Nc2ccc(C(F)(F)F)cc2)nc(N)c1F [Cpd 59, 6-(2-ethyl-6-fluoro-1H-benzimidazol-1-yl)-5-fluoro-N^2-[4-(trifluoromethyl)phenyl]pyrimidine-2,4-diamine] | 100 to 3000
Cc1nc2c(F)cc(F)cc2n1-c1cc(N)nc(Nc2ccc(OC(F)F)cc2)n1 [Cpd 60, N^2-[4-(difluoromethoxy)phenyl]-6-(4,6-difluoro-2-methyl-1H-benzimidazol-1-yl)pyrimidine-2,4-diamine] | 10 to 100
Nc1cc(-n2c(C3CC3)nc3ccccc32)nc(Nc2ccc(C(F)(F)F)cc2)n1 [Cpd 61, 6-(2-cyclopropyl-1H-benzimidazol-1-yl)-N^2-[4-(trifluoromethyl)phenyl]pyrimidine-2,4-diamine] | 10 to 100
Cc1nc2ncccc2n1-c1nc(Nc2ccc(C(F)(F)F)cc2)nc(N)c1F [Cpd 62, 5-fluoro-6-(2-methyl-1H-imidazo[4,5-b]pyridin-1-yl)-N^2-[4-(trifluoromethyl)phenyl]pyrimidine-2,4-diamine] | 100 to 3000
Nc1cc(-n2c(C3CC3)nc3cc(F)c(F)cc32)nc(Nc2ccc(C(F)(F)F)cc2)n1 [Cpd 64, 6-(2-cyclopropyl-5,6-difluoro-1H-benzimidazol-1-yl)-N^2-[4-(trifluoromethyl)phenyl]pyrimidine-2,4-diamine] | 10 to 100
